Experimental data: ChEMBL document CHEMBL4665653, “VU6005806/AZN-00016130, an advanced M positive allosteric modulator (PAM) profiled as a potential preclinical development candidate” (Bioorg Med Chem Lett, 2019)
≈ marks a conversion by molar mass, not a printed value.

How the values were obtained:
[1] = Plasma clearance in cynomolgus monkey; type: ADME, Macaca fascicularis; conditions: read-out: CL(app)
[2] = biological target: Glucocorticoid receptor (Homo sapiens) (UniProt P04150); experiment: Displacement of [3H]Dexamethasone from recombinant full length human glucocorticoid receptor expressed in insect cells assessed as residual binding level for radioligand at 10 uM incubated for 1440 mins by scintillation counting analysis relative to control
hERG (KCNH2) = hERG (KCNH2) (Homo sapiens, UniProt Q12809); experiment: Displacement of [3H]-Astemizole from human recombinant full length ERG channel expressed in HEK293 cells assessed as residual binding level for radioligand at 10 uM incubated for 60 mins by scintillation counting analysis relative to control; type: cell-based; conditions: probe [3H]-Astemizole, read-out: INH
Rattus norvegicus [3] = species on record: Rattus norvegicus; experiment: Displacement of [35S] dATPalphaS from P2Y receptor in Wistar rat brain at 10 uM incubated for 180 mins by radiometric scintillation analysis relative to control; type: tissue-based
Rattus norvegicus [4] = species on record: Rattus norvegicus; experiment: Displacement of [3H]-idazoxan from imidazoline I2 receptor in Wistar rat brain assessed as residual binding level for radioligand at 10 uM incubated for 30 mins by scintillation counting analysis relative to control; type: tissue-based
[5] = biological target: Muscarinic acetylcholine receptor M5 (Homo sapiens, UniProt P08912); experiment: Positive allosteric modulation of human M5 receptor
[6] = Solubility of the compound pH 7.5; type: physicochemical; conditions: buffer
[7] = biological target: P2X receptor (Rattus norvegicus) (UniProt P51579+P49653+P51578+Q64663+P47824+P51577+P49654); experiment: Displacement of [3H] alpha, beta-Methylene-ATP from P2X receptor in Wistar rat urinary bladder assessed as residual binding level for radioligand at 10 uM incubated for 120 mins by liquid scintillation counting method relative to control; type: tissue-based
[8] = biological target: D(4) dopamine receptor (Homo sapiens) (UniProt P21917); experiment: Displacement of [3H]spiperone from full length recombinant human D4.4 receptor expressed in CHO cells assessed as residual binding level for radioligand at 10 uM incubated for 120 mins by radiometric scintillation analysis relative to control; type: cell-based
HIT-T15 = experiment: Displacement of [3H]glyburide from KATP receptor in HIT-T15 Syrian hamster pancreatic B cell membranes assessed as residual binding level for radioligand at 10 uM after 120 mins by radiometric scintillation analysis relative to control; type: tissue-based; conditions: Mesocricetus auratus
[9] = biological target: Neuropeptide Y receptor type 1 (Homo sapiens) (UniProt P25929); experiment: Displacement of [125I]peptide YY from human Y1 receptor in SK-N-MC cell membrane assessed as residual binding level for radioligand at 10 uM after 120 mins by scintillation counting analysis relative to control
[10] = biological target: Glutamate NMDA receptor (Rattus norvegicus) (UniProt P35439+Q00959+Q00960+Q00961+Q62645+Q8VHN2+Q9R1M7); experiment: Displacement of [3H]MDL 105,519 from glutamate NMDA receptor glycine binding site in Wistar rat cerebral cortical membranes assessed as residual binding level for radioligand at 10 uM incubated for 30 mins by radiometric scintillation analysis relative to control; type: tissue-based; conditions: Cerebral cortex
[11] = biological target: Sodium-dependent dopamine transporter (Homo sapiens) (UniProt Q01959); experiment: Displacement of [125I]RTI-55 from full length recombinant human dopamine transporter expressed in CHO-S cells assessed as residual binding level for radioligand at 10 uM after 180 mins by radiometric scintillation analysis relative to control; type: cell-based
[12] = biological target: Beta-2 adrenergic receptor (Homo sapiens) (UniProt P07550); experiment: Displacement of [3H]-(-)CGP 12177 from recombinant full length human adrenergic beta 2 receptor expressed in CHO-hNBR1 cells assessed as residual binding level for radioligand at 10 uM incubated for 60 mins by radiometric scintillation analysis relative to control; type: cell-based
[13] = Solubility of the compound in FaSSIF; type: physicochemical
[14] = Brain to plasma permeability coefficient, Kp in Sprague-Dawley rat at 0.1 to 0.2 mg/kg, iv measured after 1.5 hrs; type: ADME, organism-based; conditions: dose 0.1-0.2 mg/kg
[15] = Half life in dog; type: ADME, Canis lupus familiaris; conditions: in vivo
[16] = biological target: Sodium-dependent noradrenaline transporter (Homo sapiens) (UniProt P23975); experiment: Displacement of [125I]RTI-55 from full length recombinant human NET expressed in MDCK cells assessed as residual binding level for radioligand at 10 uM after 180 mins by radiometric scintillation analysis relative to control; type: cell-based
[17] = Plasma clearance in rat; type: ADME; conditions: read-out: CL(app)
[18] = biological target: Sodium-dependent serotonin transporter (Homo sapiens) (UniProt P31645); experiment: Displacement of [3H]paroxetine from full length recombinant human SET expressed in HEK293 cells assessed as residual binding level for radioligand at 10 uM after 60 mins by radiometric scintillation analysis relative to control; type: cell-based
[19] = Positive allosteric modulation of cynomolgus monkey M4 receptor; design: species or system Macaca fascicularis
[20] = Distribution coefficient, log D of the compound pH 7.5; type: physicochemical; conditions: octanol/water
[21] = biological target: Alpha-2A adrenergic receptor (Homo sapiens) (UniProt P08913); experiment: Displacement of [3H][…] from recombinant full length human adrenergic alpha 2A receptor expressed in CHO-K1 cells assessed as residual binding level for radioligand at 10 uM incubated for 60 mins by radiometric scintillation analysis relative to control; type: cell-based
[22] = biological target: Endothelin receptor type B (Homo sapiens) (UniProt P24530); experiment: Displacement of [125I]endothelin-1 from recombinant full length human recombinant ETB receptor expressed in CHO-K1 cells assessed as residual binding level for radioligand at 10 uM measured after 120 mins by radiometric scintillation analysis relative to control; type: cell-based
[23] = biological target: Alpha-1A adrenergic receptor (Homo sapiens) (UniProt P35348); experiment: Displacement of [3H]-Prazosin from human adrenergic alpha 1A receptor expressed in Chem-1 cells assessed as residual binding level for radioligand at 10 uM incubated for 60 mins by radiometric scintillation analysis relative to control; type: cell-based
[24] = biological target: Cannabinoid receptor 1 (Homo sapiens) (UniProt P21554); experiment: Displacement of [3H]-SR141716A from human recombinant full length Cannabinoid CB1 receptor expressed in Chem-1 cells assessed as residual binding level for radioligand at 10 uM incubated for 60 mins by radiometric scintillation analysis relative to control; type: cell-based
[25] = biological target: Gamma-aminobutyric acid type B receptor subunit 1 (Homo sapiens) (UniProt Q9UBS5); experiment: Displacement of [3H]CGP-54626 from human recombinant full length GABAB1 receptor expressed in CHO-K1 cells assessed as residual binding level for radioligand at 10 uM incubated for 180 mins by scintillation counting analysis relative to control; type: cell-based
[26] = biological target: Interleukin-1 receptor type 1 (Homo sapiens) (UniProt P14778); experiment: Displacement of [125I]-Interleukin 1beta from human interleukin IL-1 R1 receptor assessed as residual binding level for radioligand at 10 uM incubated for 1200 mins by scintillation counting analysis relative to control
[27] = biological target: D(3) dopamine receptor (Homo sapiens) (UniProt P35462); experiment: Displacement of [3H]spiperone from full length human dopamine D3 receptor expressed in CHO cells assessed as residual binding level for radioligand at 10 uM incubated for 60 mins by radiometric scintillation analysis relative to control; type: cell-based
[28] = biological target: Kappa-type opioid receptor (Homo sapiens) (UniProt P41145); experiment: Displacement of [3H]-Diprenorphine from recombinant full length human kappa opioid receptor expressed in HEK293 cells assessed as residual binding level for radioligand at 10 uM incubated for 60 mins by scintillation counting analysis relative to control; type: cell-based

Sequence of hERG (KCNH2) (Q12809 whole entry): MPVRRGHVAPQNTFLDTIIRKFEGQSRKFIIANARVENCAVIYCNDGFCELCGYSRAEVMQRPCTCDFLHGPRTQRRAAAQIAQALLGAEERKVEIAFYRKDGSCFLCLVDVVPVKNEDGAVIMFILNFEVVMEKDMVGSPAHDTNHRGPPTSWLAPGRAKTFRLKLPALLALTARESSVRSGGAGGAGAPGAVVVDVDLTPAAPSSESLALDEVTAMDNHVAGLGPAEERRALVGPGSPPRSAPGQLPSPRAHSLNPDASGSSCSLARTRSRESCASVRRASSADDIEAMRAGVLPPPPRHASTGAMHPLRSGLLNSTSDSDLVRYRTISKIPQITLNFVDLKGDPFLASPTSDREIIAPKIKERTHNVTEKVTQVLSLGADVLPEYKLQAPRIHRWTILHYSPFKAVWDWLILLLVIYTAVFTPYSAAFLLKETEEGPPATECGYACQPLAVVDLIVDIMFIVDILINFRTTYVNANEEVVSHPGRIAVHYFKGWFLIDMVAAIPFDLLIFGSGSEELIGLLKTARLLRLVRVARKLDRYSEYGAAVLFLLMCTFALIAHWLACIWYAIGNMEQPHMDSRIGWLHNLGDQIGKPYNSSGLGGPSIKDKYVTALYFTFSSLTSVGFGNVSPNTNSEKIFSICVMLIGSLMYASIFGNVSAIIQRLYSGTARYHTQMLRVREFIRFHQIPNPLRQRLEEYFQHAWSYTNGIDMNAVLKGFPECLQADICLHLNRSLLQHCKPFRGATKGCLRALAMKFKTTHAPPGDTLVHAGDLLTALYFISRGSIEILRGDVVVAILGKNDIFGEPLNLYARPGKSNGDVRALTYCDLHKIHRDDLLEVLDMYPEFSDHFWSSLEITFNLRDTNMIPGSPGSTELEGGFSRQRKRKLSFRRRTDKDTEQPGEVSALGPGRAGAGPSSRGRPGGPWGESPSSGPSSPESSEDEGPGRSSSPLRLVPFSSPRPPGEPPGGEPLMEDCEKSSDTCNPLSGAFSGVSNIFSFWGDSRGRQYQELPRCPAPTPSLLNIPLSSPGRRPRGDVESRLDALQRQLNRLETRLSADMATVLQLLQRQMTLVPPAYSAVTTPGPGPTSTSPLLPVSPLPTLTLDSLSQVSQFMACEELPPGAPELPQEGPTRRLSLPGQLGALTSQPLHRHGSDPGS
Sequence of Beta-2 adrenergic receptor (Homo sapiens) (P07550 whole entry, looked up): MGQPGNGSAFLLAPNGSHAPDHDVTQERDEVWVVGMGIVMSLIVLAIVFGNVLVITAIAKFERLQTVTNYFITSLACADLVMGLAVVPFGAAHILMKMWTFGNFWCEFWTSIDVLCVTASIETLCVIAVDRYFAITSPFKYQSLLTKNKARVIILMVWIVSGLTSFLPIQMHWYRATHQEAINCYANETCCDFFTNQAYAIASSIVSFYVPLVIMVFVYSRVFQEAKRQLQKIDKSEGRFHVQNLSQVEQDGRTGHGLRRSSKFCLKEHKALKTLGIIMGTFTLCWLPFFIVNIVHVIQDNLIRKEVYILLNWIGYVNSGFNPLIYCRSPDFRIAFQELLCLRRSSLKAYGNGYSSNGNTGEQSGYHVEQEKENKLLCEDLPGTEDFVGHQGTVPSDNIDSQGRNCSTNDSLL
Sequence of Glucocorticoid receptor (Homo sapiens) (P04150 whole entry): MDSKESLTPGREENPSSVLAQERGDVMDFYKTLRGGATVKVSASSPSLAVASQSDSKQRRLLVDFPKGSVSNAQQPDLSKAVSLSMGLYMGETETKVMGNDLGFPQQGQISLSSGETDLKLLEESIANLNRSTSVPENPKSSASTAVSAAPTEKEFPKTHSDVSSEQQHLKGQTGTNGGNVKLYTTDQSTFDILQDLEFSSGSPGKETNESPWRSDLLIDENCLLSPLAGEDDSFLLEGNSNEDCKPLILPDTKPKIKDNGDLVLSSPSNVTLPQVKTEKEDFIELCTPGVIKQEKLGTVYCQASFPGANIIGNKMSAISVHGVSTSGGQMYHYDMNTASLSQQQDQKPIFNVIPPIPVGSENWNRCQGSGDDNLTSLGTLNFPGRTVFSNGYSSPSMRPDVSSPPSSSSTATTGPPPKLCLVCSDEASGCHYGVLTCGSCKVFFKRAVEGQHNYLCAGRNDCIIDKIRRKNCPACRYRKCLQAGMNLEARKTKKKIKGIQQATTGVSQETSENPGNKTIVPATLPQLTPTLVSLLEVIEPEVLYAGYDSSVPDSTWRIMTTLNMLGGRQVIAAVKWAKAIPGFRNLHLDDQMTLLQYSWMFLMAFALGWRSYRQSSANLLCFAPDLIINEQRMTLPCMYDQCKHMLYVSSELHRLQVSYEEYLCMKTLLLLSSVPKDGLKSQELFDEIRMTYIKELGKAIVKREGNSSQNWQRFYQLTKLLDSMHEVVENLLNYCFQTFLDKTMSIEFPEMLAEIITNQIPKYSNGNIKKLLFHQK
Sequence of Interleukin-1 receptor type 1 (Homo sapiens) (P14778 whole entry): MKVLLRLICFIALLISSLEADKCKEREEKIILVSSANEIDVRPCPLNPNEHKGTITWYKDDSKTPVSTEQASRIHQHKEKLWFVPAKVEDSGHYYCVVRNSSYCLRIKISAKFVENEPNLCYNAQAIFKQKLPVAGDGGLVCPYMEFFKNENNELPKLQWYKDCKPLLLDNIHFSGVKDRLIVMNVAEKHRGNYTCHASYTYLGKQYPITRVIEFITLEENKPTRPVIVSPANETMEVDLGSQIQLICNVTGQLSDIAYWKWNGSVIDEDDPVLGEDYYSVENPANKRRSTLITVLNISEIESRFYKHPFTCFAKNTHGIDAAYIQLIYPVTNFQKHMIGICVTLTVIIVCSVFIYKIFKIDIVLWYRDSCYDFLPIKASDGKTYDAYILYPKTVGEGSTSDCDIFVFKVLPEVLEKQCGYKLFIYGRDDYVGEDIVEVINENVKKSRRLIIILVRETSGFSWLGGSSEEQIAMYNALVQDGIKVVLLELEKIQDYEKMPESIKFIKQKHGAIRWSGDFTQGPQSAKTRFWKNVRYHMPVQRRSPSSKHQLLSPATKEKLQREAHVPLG
Sequence of D(4) dopamine receptor (Homo sapiens) (P21917 whole entry): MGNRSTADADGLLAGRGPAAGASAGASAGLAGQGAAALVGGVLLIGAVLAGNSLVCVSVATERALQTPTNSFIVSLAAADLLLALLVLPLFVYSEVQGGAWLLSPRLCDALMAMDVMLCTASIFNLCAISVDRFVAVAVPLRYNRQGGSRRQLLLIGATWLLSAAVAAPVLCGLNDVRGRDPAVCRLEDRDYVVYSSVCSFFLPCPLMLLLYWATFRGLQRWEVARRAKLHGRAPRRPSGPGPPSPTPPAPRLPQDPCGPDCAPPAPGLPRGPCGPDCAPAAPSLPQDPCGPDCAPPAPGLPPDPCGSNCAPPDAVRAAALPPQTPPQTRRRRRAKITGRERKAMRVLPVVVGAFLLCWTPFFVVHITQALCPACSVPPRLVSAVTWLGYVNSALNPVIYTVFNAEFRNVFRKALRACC
Sequence of Muscarinic acetylcholine receptor M5 (P08912 whole entry): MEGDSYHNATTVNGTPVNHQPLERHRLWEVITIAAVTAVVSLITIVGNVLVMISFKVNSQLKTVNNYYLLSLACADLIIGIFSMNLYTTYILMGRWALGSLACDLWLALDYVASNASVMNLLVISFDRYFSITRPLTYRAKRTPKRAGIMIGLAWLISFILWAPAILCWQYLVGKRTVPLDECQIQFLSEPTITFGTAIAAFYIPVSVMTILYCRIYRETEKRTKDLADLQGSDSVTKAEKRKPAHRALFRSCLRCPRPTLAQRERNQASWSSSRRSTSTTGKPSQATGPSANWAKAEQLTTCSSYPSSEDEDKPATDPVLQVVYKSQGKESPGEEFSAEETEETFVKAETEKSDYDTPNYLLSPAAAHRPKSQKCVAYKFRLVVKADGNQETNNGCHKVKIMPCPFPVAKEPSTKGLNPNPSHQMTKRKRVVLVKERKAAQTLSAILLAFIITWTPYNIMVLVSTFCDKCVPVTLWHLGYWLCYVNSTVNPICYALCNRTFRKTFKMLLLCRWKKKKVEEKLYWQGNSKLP
Sequence of Gamma-aminobutyric acid type B receptor subunit 1 (Homo sapiens) (Q9UBS5 whole entry): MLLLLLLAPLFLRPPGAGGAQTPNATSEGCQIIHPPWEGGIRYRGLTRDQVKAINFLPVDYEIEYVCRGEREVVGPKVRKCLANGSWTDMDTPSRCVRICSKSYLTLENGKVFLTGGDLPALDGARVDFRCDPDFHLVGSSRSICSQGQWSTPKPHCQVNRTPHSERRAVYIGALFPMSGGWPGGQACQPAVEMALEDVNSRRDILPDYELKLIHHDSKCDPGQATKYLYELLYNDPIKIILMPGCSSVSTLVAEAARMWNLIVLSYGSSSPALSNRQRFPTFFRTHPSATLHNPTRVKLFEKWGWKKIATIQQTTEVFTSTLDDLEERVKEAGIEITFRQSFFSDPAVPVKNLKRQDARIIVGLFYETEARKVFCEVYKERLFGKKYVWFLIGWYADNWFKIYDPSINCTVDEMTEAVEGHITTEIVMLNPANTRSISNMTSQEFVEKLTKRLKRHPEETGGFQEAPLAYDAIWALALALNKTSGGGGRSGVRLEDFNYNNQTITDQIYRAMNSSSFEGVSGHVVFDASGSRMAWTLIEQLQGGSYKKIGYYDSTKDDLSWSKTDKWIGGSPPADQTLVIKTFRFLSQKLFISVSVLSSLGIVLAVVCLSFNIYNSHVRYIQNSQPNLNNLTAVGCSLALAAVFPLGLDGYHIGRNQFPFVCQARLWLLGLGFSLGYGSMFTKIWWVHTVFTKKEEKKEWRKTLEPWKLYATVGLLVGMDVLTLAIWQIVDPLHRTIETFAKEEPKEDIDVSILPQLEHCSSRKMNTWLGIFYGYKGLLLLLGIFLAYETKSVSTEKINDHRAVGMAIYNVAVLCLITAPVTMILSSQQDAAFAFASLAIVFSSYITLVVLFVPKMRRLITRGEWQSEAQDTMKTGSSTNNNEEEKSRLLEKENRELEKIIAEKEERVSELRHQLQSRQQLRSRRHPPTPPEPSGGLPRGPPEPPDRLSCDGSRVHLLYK

COc1nnc2sc(C(=O)NC3CN(c4ncc(C(F)(F)F)cn4)C3)c(N)c2c1C
clearance [1]: 16 mL/min/kg
Activity [2]: > 50%
activity at 1 h, 10 µM (hERG (KCNH2)): < 25%
Activity (Rattus norvegicus [3]): > 50%
Activity (Rattus norvegicus [4]): > 50%
EC50 [5]: > 30000 nM
solubility [6]: 2.9 µM (≈ 1.27 µg/mL)
Activity [7]: > 50%
Activity [8]: > 50%
Activity (HIT-T15): > 50%
Activity [9]: > 50%
Activity [10]: > 50%
Activity [11]: > 50%
Activity [12]: > 50%
solubility [13]: 18 µM (≈ 7.91 µg/mL)
Kp at 1.5 h [14]: 0.16
half-life [15]: 1 h
Activity [16]: > 50%
clearance [17]: 7.7 mL/min/kg
Activity [18]: > 50%
EC50 [19]: 68 nM
logD [20]: 3.73
Activity [21]: > 50%
Activity [22]: > 50%
Activity [23]: > 50%
Activity [24]: > 50%
Activity [25]: > 50%
Activity [26]: > 50%
Activity [27]: > 50%
Activity [28]: > 50%
